Reference: article PMC4182091, “A Common Minimal Motif for the Ligands of HLA-B*27 Class I Molecules” (PLoS ONE, 2014)
Like-named read-outs stand apart in the source and are kept apart here. Ends that are not written are not given here.

How the values were obtained:
Type in all cases: cell-based
HLA-B*2706 = target: T1, HLA-B*2706 (Homo sapiens, UniProt P01889, A235G/D201E/E204Q/G107R/H137Y/K202T/N104T/N87E/Q56L/Q94K/R106L/R155S/R180L/S121N/S48T/Y33H/Y91C); test: HLA/peptide complex stability assay, RMA-S cells transfected with HLA-B*2706
T1 construct: expressed in transfected cells; host or cells: RMA-S (TAP-deficient murine cell line)

HLA-B*2701 = target: T2, HLA-B*2701 (Homo sapiens, UniProt P01889, D138H/D201E/D98Y/E176V/E204Q/G107R/H137Y/K202T/L105A/N104T/N87E/Q56L/Q94K/R106L/R155S/R180L/S101N/S121N/S48T/Y140D/Y33H/Y91C); test: HLA/peptide complex stability assay, RMA-S cells transfected with HLA-B*2701
T2 construct: expressed in transfected cells; host or cells: RMA-S (TAP-deficient murine cell line)

HLA-B*2704 = HLA-B*2704 (Homo sapiens, UniProt P01889, A235G/D138H/D201E/E204Q/G107R/H137Y/K202T/N104T/N87E/Q56L/Q94K/R106L/R155S/R180L/S121N/S48T/Y140D/Y33H/Y91C); test: HLA/peptide complex stability assay, RMA-S cells transfected with HLA-B*2704
HLA-B*2703 = target: T3, HLA-B*2703 (Homo sapiens, UniProt P01889, D138H/D201E/E176V/E204Q/G107R/H137Y/K202T/N104T/N87E/Q56L/Q94K/R106L/R155S/R180L/S101D/S121N/S48T/Y140D/Y33H/Y83H/Y91C); test: HLA/peptide complex stability assay, RMA-S cells transfected with HLA-B*2703
T3 construct: expressed in transfected cells; host or cells: RMA-S (TAP-deficient murine cell line)

HLA-B*2705 = target: T4, HLA-B*2705 (Homo sapiens, UniProt P01889, D138H/D201E/E176V/E204Q/G107R/H137Y/K202T/N104T/N87E/Q56L/Q94K/R106L/R155S/R180L/S101D/S121N/S48T/Y140D/Y33H/Y91C); test: HLA/peptide complex stability assay, RMA-S cells transfected with HLA-B*2705
T4 construct: expressed in transfected cells; host or cells: RMA-S (TAP-deficient murine cell line)

HLA-B*2702 = HLA-B*2702 (Homo sapiens, UniProt P01889, D138H/D201E/E176V/E204Q/G107R/H137Y/K202T/L105A/N104I/N87E/Q56L/Q94K/R106L/R155S/R180L/S101N/S121N/S48T/Y140D/Y33H/Y91C); test: HLA/peptide complex stability assay, RMA-S cells transfected with HLA-B*2702
HLA-B*2709 = target: T5, HLA-B*2709 (Homo sapiens, UniProt P01889, D138H/D201E/E176V/E204Q/G107R/H137Y/K202T/N104T/N87E/Q56L/Q94K/R106L/R155S/R180L/S101D/S121N/S48T/Y140H/Y33H/Y91C); test: HLA/peptide complex stability assay, RMA-S cells transfected with HLA-B*2709
T5 construct: expressed in transfected cells; host or cells: RMA-S (TAP-deficient murine cell line)

[1] = Table 2, peptide concentration at 50% of maximum fluorescence, range 0.01–200 µM, transfected RMA-S cells, flow cytometry, mean ± S.D. of three to five independent experiments, - = no statistical difference in fluorescence index to negative control, SD, read-out: EC50, B*2706
[2] = Table 2, peptide concentration at 50% of maximum fluorescence, range 0.01–200 µM, transfected RMA-S cells, flow cytometry, mean ± S.D. of three to five independent experiments, - = no statistical difference in fluorescence index to negative control, SD, read-out: EC50, B*2701
[3] = Table 2, peptide concentration at 50% of maximum fluorescence, range 0.01–200 µM, transfected RMA-S cells, flow cytometry, mean ± S.D. of three to five independent experiments, - = no statistical difference in fluorescence index to negative control, SD, read-out: EC50, B*2704
[4] = Table 2, peptide concentration at 50% of maximum fluorescence, range 0.01–200 µM, transfected RMA-S cells, flow cytometry, mean ± S.D. of three to five independent experiments, - = no statistical difference in fluorescence index to negative control, SD, read-out: EC50, B*2703
[5] = Table 2, peptide concentration at 50% of maximum fluorescence, range 0.01–200 µM, transfected RMA-S cells, flow cytometry, mean ± S.D. of three to five independent experiments, - = no statistical difference in fluorescence index to negative control, SD, read-out: EC50, B*2705
[6] = Table 2, peptide concentration at 50% of maximum fluorescence, range 0.01–200 µM, transfected RMA-S cells, flow cytometry, mean ± S.D. of three to five independent experiments, - = no statistical difference in fluorescence index to negative control, SD, read-out: EC50, B*2702
[7] = Table 2, peptide concentration at 50% of maximum fluorescence, range 0.01–200 µM, transfected RMA-S cells, flow cytometry, mean ± S.D. of three to five independent experiments, - = no statistical difference in fluorescence index to negative control, SD, read-out: EC50, B*2709
[8] = […], peptide 200 µM, mean ± S.D. of three to five independent experiments, SD
[9] = relative affinity (EC50 class), B*2701
[10] = relative affinity (EC50 class), B*2703
[11] = relative affinity (EC50 class), B*2702
[12] = relative affinity (EC50 class), B*2706
[13] = relative affinity (EC50 class), B*2704
[14] = relative affinity (EC50 class), B*2705
[15] = relative affinity (EC50 class), B*2709

| Sequence | EC50 (HLA-B*2703; EC50, B*2703, SD) [µM] | EC50 (HLA-B*2702; EC50, B*2702, SD) [µM] | EC50 (HLA-B*2709; EC50, B*2709, SD) [µM] | EC50 (HLA-B*2706; EC50, B*2706, SD) [nM] | EC50 (HLA-B*2701; [9]) [µM] | EC50 (HLA-B*2704; EC50, B*2704, SD) [µM] | EC50 (HLA-B*2703; [10]) [µM] | relative MHC class I affinity according to the EC50 value, in words (high, medium, low) (HLA-B*2705) | EC50 (HLA-B*2705; EC50, B*2705, SD) [µM] | EC50 (HLA-B*2702; [11]) [µM] | EC50 (HLA-B*2704; [13]) [µM] | EC50 (HLA-B*2709; [15]) [µM] | other results |
| --- | --- | --- | --- | --- | --- | --- | --- | --- | --- | --- | --- | --- | --- |
| KRAVGIGAL [HIV gp160 500-508, reference compound] |  |  |  |  |  |  |  |  |  |  |  |  | EC50 (HLA-B*2706; [1]): 1000 ± 1000 nM; EC50 (HLA-B*2701; [2]): 17 ± 3 µM; EC50 (HLA-B*2704; [3]): 24 ± 8 µM; EC50 (HLA-B*2704; Table 3, classes of EC50 from stabilization assay in transfected RMA-S cells, read-out: relative affinity (EC50 class), B*2704): 20 to 60 µM; EC50 (HLA-B*2703; [4]): 14 ± 7 µM; EC50 (HLA-B*2705; [5]): 12 ± 3 µM; EC50 (HLA-B*2702; [6]): 16 ± 6 µM; EC50 (HLA-B*2709; [7]): 8 ± 1 µM |
| ARYKGLLPKDI [A1-NP 195-205, monosubstituted Ala analog of HRSV NP 195-205, […]] |  |  |  |  |  |  |  |  |  |  |  |  | fluorescence index, B*2706 (HLA-B*2706; [8]): 2.7±0.3; fluorescence index, B*2701 (HLA-B*2701; [8]): 1.9±0.1; fluorescence index, B*2704 (HLA-B*2704; [8]): 2.2±0.3; fluorescence index, B*2703 (HLA-B*2703; [8]): 2.1±0.2; fluorescence index, B*2705 (HLA-B*2705; [8]): 2.4±0.3; fluorescence index, B*2702 (HLA-B*2702; [8]): 1.8±0.1; fluorescence index, B*2709 (HLA-B*2709; [8]): 1.8±0.2 |
| RRAAAAAAAI [RRA7I] | 7 ± 5 | 28 ± 16 | 2 ± 1 |  |  |  |  |  |  |  |  |  | EC50 (HLA-B*2706; SD): 2000 ± 1000 nM; EC50 (HLA-B*2701; SD): 7 ± 2 µM; EC50 (HLA-B*2704; SD): 7 ± 2 µM; EC50 (HLA-B*2705; SD): 4 ± 3 µM; EC50 (HLA-B*2702; read-out: relative affinity (EC50 class), B*2702): 20 to 60 µM |
| RRYPDAVYL [MV F 438-466, reference compound] |  |  |  |  |  |  |  |  |  |  |  |  | EC50 (HLA-B*2706; [1]): 2000 ± 1000 nM; EC50 (HLA-B*2701; [2]): 5 ± 2 µM; EC50 (HLA-B*2704; [3]): 18 ± 4 µM; EC50 (HLA-B*2703; [4]): 4 ± 3 µM; EC50 (HLA-B*2705; [5]): 3 ± 2 µM; EC50 (HLA-B*2702; [6]): 11 ± 4 µM; EC50 (HLA-B*2709; [7]): 4 ± 1 µM |
| RRANNVLKNEM [NP 184-194] | 60 ± 29 | 43 ± 27 | 7 ± 1 | 2000 ± 1000 | 20 to 60 | 19 ± 10 | 20 to 60 | high | 20 ± 8 | 20 to 60 |  |  | EC50 (HLA-B*2701; EC50, B*2701, SD): 39 ± 9 µM |
| LRNEESEKMAK [P 198-208] |  |  | 86 ± 12 |  | > 200 |  | > 200 | low affinity | 98 ± 35 | > 200 | > 200 | 61 to 200 | EC50 (HLA-B*2706; EC50, B*2706): > 200000 nM; EC50 (HLA-B*2706; [12]): > 200000 nM; EC50 (HLA-B*2701; read-out: EC50, B*2701): > 200 µM; EC50 (HLA-B*2704; read-out: EC50, B*2704): > 200 µM; EC50 (HLA-B*2703; EC50, B*2703): > 200 µM; EC50 (HLA-B*2705; [14]): 61 to 200 µM; EC50 (HLA-B*2702; read-out: EC50, B*2702): > 200 µM |
| HRFIYLINH [NS2 37-45] | 10 ± 5 | 77 ± 14 | 33 ± 9 | 45000 ± 19000 | > 200 | 78 ± 33 |  | high | 7 ± 4 | 61 to 200 | 61 to 200 | 20 to 60 | EC50 (HLA-B*2706; [12]): 20000 to 60000 nM; EC50 (HLA-B*2701; read-out: EC50, B*2701): > 200 µM |
| HRQDINGKEM [NP 100-109] | 96 ± 43 | 132 ± 53 | 24 ± 7 | 3000 ± 2000 | > 200 | 67 ± 27 | 61 to 200 | medium | 50 ± 15 | 61 to 200 | 61 to 200 | 20 to 60 | EC50 (HLA-B*2701; EC50, B*2701): > 200 µM; EC50 (HLA-B*2705; [14]): 20 to 60 µM |
